Assay results as given in PubChem BioAssay AID1963983 (Molecular Pharmacology Branch, DTP, NCI, 2024).

Tested on: 186277-243-T-J2-PDC multi-cell spheroid viability
Assay: Anticancer human tumor 186277-243-T-J2-PDC patient-derived colon adenocarcinoma cell line growth inhibition [PI3K]
Conditions: for viability, T/C: stronger effect = lower value; active = viability on the fitted dose curve at most 10% of control; inactive = the rest
Summary of the method: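 Combination activity was assessed by viability in multicellular tumor spheroids carrying HUVEC and MSC components. Agents were tested with PI3K inhibitors from a Cmax-based top dose (or 10 microM) downward in half-log increments.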

[1] = curve of first compound, second compound 0.0316 µM
[2] = curve of first compound, second compound 0.1 µM
[3] = curve of first compound, second compound 0.316 µM
[4] = curve of first compound, second compound 1 µM
[5] = second compound 0.0316 µM, first compound 0.0316 µM
[6] = second compound 0.0316 µM, first compound 0.1 µM
[7] = second compound 0.1 µM, first compound 0.0316 µM
[8] = second compound 0.1 µM, first compound 0.1 µM
[9] = second compound 0.316 µM, first compound 0.0316 µM
[10] = second compound 0.316 µM, first compound 0.1 µM
[11] = second compound 1 µM, first compound 0.0316 µM
[12] = second compound 1 µM, first compound 0.1 µM
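Also: spheroids exposed to compounds for seven days before viability reading.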
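For viability, T/C in this document: 100% = DMSO vehicle control viability.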

Cn1ncnc1[C@H]1c2n[nH]c(=O)c3cc(F)cc(c23)N[C@@H]1c1ccc(F)cc1 + Cc1nc(NC(=O)N2CCCC2C(N)=O)sc1-c1ccnc(C(C)(C)C(F)(F)F)c1
< 0.000316 µM: IC50 (curve of first compound, second compound 10 µM)
inactive: viability, T/C (second compound 0.0316 µM, first compound 0.000316 µM) 86.8% | viability, T/C (second compound 0.0316 µM, first compound 0.001 µM) 82.2% | viability, T/C (second compound 0.0316 µM, first compound 0.00316 µM) 94.5% | viability, T/C (second compound 0.0316 µM, first compound 0.01 µM) 96.9% | viability, T/C [5] 112% | viability, T/C [6] 92.7% | viability, T/C (second compound 0.1 µM, first compound 0.000316 µM) 114% | viability, T/C (second compound 0.1 µM, first compound 0.001 µM) 99.6% | viability, T/C (second compound 0.1 µM, first compound 0.00316 µM) 97.1% | viability, T/C (second compound 0.1 µM, first compound 0.01 µM) 117% | viability, T/C [7] 116% | viability, T/C [8] 108% | viability, T/C (second compound 0.316 µM, first compound 0.000316 µM) 114% | viability, T/C (second compound 0.316 µM, first compound 0.001 µM) 113% | viability, T/C (second compound 0.316 µM, first compound 0.00316 µM) 112% | viability, T/C (second compound 0.316 µM, first compound 0.01 µM) 107% | viability, T/C [9] 104% | viability, T/C [10] 90.4% | viability, T/C (second compound 1 µM, first compound 0.000316 µM) 101% | viability, T/C (second compound 1 µM, first compound 0.001 µM) 94.9% | viability, T/C (second compound 1 µM, first compound 0.00316 µM) 99.9% | viability, T/C (second compound 1 µM, first compound 0.01 µM) 91.6% | viability, T/C [11] 85.5% | viability, T/C [12] 65.9% | viability, T/C (second compound 3.16 µM, first compound 0.000316 µM) 64.3% | viability, T/C (second compound 3.16 µM, first compound 0.001 µM) 52.7% | viability, T/C (second compound 3.16 µM, first compound 0.00316 µM) 45.9% | viability, T/C (second compound 3.16 µM, first compound 0.01 µM) 46.9% | viability, T/C (second compound 3.16 µM, first compound 0.0316 µM) 43.9% | viability, T/C (second compound 3.16 µM, first compound 0.1 µM) 33.6% | viability, T/C (second compound 10 µM, first compound 0.000316 µM) 13.6% | viability, T/C (second compound 10 µM, first compound 0.001 µM) 12% | viability, T/C (second compound 10 µM, first compound 0.00316 µM) 14.8% | viability, T/C (second compound 10 µM, first compound 0.01 µM) 17.4% | viability, T/C (second compound 10 µM, first compound 0.0316 µM) 11.3% | viability, T/C (second compound 10 µM, first compound 0.1 µM) 8.17%
0.00254 µM: IC50 (curve of first compound, second compound 3.16 µM)
> 0.1 µM: IC50 [1] | IC50 [2] | IC50 [3] | IC50 [4]

Cn1nccc1Nc1nccc(-c2ccn(C(CO)c3ccc(Cl)c(F)c3)c(=O)c2)n1 (stereo unspecified) + COc1c(OCCCN2CCOCC2)ccc2c3n(c(=NC(=O)c4cnc(N)nc4)nc12)CCN3
< 0.0316 µM: IC50 [1] | IC50 [2] | IC50 [3] | IC50 [4]
0.502 µM: IC50 (curve of first compound, second compound 0.01 µM)
1.08 µM: IC50 (curve of first compound, second compound 0.00316 µM)
active: viability, T/C (second compound 0.01 µM, first compound 10 µM) 5.46% | viability, T/C (second compound 0.0316 µM, first compound 3.16 µM) 6.79% | viability, T/C (second compound 0.0316 µM, first compound 10 µM) 8.22% | viability, T/C [8] 8.17% | viability, T/C (second compound 0.1 µM, first compound 0.316 µM) 6.57% | viability, T/C (second compound 0.1 µM, first compound 1 µM) 2.91% | viability, T/C (second compound 0.1 µM, first compound 3.16 µM) 2.2% | viability, T/C (second compound 0.1 µM, first compound 10 µM) 1.76% | viability, T/C [9] 3.78% | viability, T/C [10] 6.01% | viability, T/C (second compound 0.316 µM, first compound 0.316 µM) 1.78% | viability, T/C (second compound 0.316 µM, first compound 1 µM) 1.08% | viability, T/C (second compound 0.316 µM, first compound 3.16 µM) 1.43% | viability, T/C (second compound 0.316 µM, first compound 10 µM) 0.17% | viability, T/C [11] 2.33% | viability, T/C [12] 2.25% | viability, T/C (second compound 1 µM, first compound 0.316 µM) 0.33% | viability, T/C (second compound 1 µM, first compound 1 µM) 0.28% | viability, T/C (second compound 1 µM, first compound 3.16 µM) 0.15% | viability, T/C (second compound 1 µM, first compound 10 µM) 0.27%
inactive: viability, T/C (second compound 0.00316 µM, first compound 0.0316 µM) 109% | viability, T/C (second compound 0.00316 µM, first compound 0.1 µM) 107% | viability, T/C (second compound 0.00316 µM, first compound 0.316 µM) 89.2% | viability, T/C (second compound 0.00316 µM, first compound 1 µM) 51.6% | viability, T/C (second compound 0.00316 µM, first compound 3.16 µM) 24.3% | viability, T/C (second compound 0.00316 µM, first compound 10 µM) 15.1% | viability, T/C (second compound 0.01 µM, first compound 0.0316 µM) 86.3% | viability, T/C (second compound 0.01 µM, first compound 0.1 µM) 94.6% | viability, T/C (second compound 0.01 µM, first compound 0.316 µM) 57.7% | viability, T/C (second compound 0.01 µM, first compound 1 µM) 32.6% | viability, T/C (second compound 0.01 µM, first compound 3.16 µM) 14.7% | viability, T/C [5] 47.2% | viability, T/C [6] 34.6% | viability, T/C (second compound 0.0316 µM, first compound 0.316 µM) 18.4% | viability, T/C (second compound 0.0316 µM, first compound 1 µM) 10.2% | viability, T/C [7] 9.72%

C[C@@H](NC(=O)c1ncnc(N)c1Cl)c1ncc(C(=O)Nc2cc(C(F)(F)F)c(Cl)cn2)s1
inactive: viability, T/C (compound 0.0316 µM) 95.7% [middle of 4 runs] | viability, T/C (compound 0.1 µM) 92.9% [middle of 4 runs] | viability, T/C (compound 0.316 µM) 92.3% [middle of 4 runs] | viability, T/C (compound 1 µM) 99.5% [middle of 4 runs] | viability, T/C (compound 3.16 µM) 105% [middle of 4 runs] | viability, T/C (compound 10 µM) 79.9% [middle of 4 runs]
> 10 µM: IC50 (curve of compound)
